Where two headings read alike, the source gives them in different places. Blank lines part the entries; values can stand above or below the molecule they belong to.
Legend:
Assay type in all cases: cell-based
URAT1 [1] = target: T1, URAT1 (Homo sapiens, UniProt Q96S37); assay: [14C]-urate uptake by URAT1-expressing Xenopus oocytes
T1 sequence (Q96S37 1-553): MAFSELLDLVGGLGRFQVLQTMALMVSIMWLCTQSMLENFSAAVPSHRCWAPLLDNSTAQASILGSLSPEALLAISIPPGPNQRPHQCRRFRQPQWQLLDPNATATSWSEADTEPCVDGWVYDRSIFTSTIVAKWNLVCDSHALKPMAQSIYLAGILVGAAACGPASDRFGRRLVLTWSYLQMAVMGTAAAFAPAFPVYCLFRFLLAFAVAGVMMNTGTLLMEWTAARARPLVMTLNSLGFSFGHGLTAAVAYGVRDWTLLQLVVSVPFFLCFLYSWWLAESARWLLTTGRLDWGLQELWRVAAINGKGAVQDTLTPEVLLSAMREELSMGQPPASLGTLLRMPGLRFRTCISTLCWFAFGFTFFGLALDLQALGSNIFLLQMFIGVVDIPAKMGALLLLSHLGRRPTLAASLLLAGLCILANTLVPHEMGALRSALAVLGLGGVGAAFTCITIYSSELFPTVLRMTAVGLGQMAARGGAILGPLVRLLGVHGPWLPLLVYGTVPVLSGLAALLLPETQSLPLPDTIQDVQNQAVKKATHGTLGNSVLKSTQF
From the text: (§1) For uptake experiments, oocytes were washed four times with ND96 medium (pH 7.4) without pyruvate and gentamycin.

OAT4 = target: T2, OAT4 (Homo sapiens, UniProt Q9NSA0); assay: [14C]-urate uptake by OAT4-expressing Xenopus oocytes; details: for cis-inhibition of OAT4-mediated, maleate trans-stimulated urate uptake: 10 mM extracellular anion; for trans-stimulatory effect of preloaded anion on OAT4-mediated urate uptake: preinjected 50 nL of 100 mmol/L
T2 sequence (Q9NSA0 1-550): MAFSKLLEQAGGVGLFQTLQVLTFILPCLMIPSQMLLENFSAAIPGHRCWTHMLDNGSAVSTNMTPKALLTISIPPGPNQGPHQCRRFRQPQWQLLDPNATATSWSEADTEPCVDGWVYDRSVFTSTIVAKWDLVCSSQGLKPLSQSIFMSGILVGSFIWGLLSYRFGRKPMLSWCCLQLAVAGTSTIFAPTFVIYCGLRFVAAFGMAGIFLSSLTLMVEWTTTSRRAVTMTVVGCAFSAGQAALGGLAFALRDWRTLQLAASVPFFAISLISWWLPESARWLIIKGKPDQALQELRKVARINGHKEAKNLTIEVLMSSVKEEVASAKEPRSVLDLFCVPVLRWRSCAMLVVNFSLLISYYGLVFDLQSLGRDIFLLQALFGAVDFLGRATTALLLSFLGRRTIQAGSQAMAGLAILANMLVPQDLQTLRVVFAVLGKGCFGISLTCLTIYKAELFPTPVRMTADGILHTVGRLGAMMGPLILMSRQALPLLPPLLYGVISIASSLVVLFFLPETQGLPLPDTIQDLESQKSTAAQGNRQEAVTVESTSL
Experimental: as §1
(A) The uptake of [^14C]‐urate by OAT4‐expressing oocytes was performed in ND96 medium (pH 7.4) at ~25°C for 1 h. Na^+‐dependence was examined by replacing extracellular NaCl by KCl. […] (B) The inhibition of [^14C]‐urate uptake by OAT4 was examined in the presence of extracellular organic anions (for cis‐inhibition) or uricosuric drugs at the indicated concentrations. […] Data are mean ± S.E. with n = 12–15.

OAT10 [2] = target: T3, OAT10 (Homo sapiens, UniProt Q9Y226); assay: [14C]-urate uptake by OAT10-expressing Xenopus oocytes; details: preloaded 50 nL of 100 mmol/L
From the text: as §1
(A) Time course of [^14C]‐urate uptake by control and […] oocytes. […] Inset, western blot analysis of OAT10 protein expressed in oocytes. […] (C) [^14C]‐urate transport properties of OAT10: voltage sensitivity and Na+‐dependence was examined by replacing extracellular NaCl by KCl or LiCl. Existence of urate/Cl^− exchange mechanism or Cl^− dependence or cis‐inhibitory effects of extracellular Cl^− on was verified by [^14C]‐urate uptake via OAT10 in the absence of extracellular Cl^− ion (0 Cl^−). In 0 Cl^− bath, NaCl was replaced by Na‐gluconate (Na‐Gluc), KCl by K‐gluconate (K‐Gluc), MgCl2 by Mg‐gluconate, and CaCl2 by Ca‐gluconate. […] Data are mean ± S.E. with n = 12–15.

GLUT9a = target: T4, GLUT9a (Homo sapiens, UniProt Q9NRM0); assay: [14C]-urate uptake by GLUT9a-expressing Xenopus oocytes
T4 sequence (Q9NRM0 1-540): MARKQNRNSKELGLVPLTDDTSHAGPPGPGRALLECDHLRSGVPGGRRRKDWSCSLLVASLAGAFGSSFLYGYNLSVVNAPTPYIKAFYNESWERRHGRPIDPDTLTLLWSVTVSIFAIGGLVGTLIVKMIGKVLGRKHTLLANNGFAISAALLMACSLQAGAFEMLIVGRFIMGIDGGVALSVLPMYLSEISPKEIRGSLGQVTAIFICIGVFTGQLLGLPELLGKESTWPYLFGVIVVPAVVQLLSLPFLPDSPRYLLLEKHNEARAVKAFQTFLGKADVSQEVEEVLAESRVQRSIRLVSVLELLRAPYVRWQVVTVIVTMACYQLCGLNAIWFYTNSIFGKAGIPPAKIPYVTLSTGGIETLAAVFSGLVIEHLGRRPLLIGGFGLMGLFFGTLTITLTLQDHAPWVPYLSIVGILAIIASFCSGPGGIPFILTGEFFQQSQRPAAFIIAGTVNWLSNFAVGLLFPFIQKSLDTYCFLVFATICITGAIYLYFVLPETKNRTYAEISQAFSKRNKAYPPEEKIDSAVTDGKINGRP
From the text: as §1
We sought to investigate the effect of tranilast on GLUT9a‐mediated [^14C]‐urate uptake in Xenopus laevis oocytes.

URAT1 [3] = target: T1, URAT1; assay: [14C]-nicotinate uptake by URAT1-expressing Xenopus oocytes; details: for cis-inhibition of URAT1-mediated [14C]-nicotinate uptake by extracellular anion: data not shown
From the text: as §1
Data are mean ± S.E. with n = 12–15.

OAT3 = target: T5, OAT3 (Mus musculus, UniProt O88909); assay: [14C]-urate uptake by OAT3-expressing Xenopus oocytes
T5 sequence (O88909 1-537): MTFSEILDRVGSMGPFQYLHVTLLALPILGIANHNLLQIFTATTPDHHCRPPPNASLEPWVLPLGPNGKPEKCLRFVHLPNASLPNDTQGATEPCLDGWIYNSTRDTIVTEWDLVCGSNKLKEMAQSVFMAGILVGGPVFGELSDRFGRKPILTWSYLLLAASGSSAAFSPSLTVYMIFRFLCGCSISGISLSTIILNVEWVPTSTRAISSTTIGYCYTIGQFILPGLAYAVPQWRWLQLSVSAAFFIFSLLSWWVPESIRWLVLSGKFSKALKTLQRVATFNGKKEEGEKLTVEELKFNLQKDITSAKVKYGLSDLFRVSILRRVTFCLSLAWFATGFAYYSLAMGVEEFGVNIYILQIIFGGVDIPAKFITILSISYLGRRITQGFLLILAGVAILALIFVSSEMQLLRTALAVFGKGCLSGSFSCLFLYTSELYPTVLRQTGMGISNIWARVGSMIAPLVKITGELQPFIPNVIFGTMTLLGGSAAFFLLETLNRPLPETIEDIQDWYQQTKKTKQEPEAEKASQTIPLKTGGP
Experimental: as §1
The uptake of [^14C]‐urate (40 μmol/L) was performed in ND96 medium (pH 7.4) at ~25°C for 1 h.

OAT10 [4] = target: T3, OAT10; assay: [14C]-nicotinate uptake by OAT10-expressing Xenopus oocytes; details: preloaded with nonlabeled anion; ND96
Experimental: as §1
Chloride ion‐dependence was also assessed; in 0 Cl^− bath, NaCl was replaced by Na‐gluconate (Na‐Gluc), KCl by K‐gluconate (K‐Gluc), MgCl2 by Mg‐gluconate, and CaCl2 by Ca‐gluconate. […] Data are mean ± S.E. with n = 12–15.

T3 sequence (Q9Y226 whole entry): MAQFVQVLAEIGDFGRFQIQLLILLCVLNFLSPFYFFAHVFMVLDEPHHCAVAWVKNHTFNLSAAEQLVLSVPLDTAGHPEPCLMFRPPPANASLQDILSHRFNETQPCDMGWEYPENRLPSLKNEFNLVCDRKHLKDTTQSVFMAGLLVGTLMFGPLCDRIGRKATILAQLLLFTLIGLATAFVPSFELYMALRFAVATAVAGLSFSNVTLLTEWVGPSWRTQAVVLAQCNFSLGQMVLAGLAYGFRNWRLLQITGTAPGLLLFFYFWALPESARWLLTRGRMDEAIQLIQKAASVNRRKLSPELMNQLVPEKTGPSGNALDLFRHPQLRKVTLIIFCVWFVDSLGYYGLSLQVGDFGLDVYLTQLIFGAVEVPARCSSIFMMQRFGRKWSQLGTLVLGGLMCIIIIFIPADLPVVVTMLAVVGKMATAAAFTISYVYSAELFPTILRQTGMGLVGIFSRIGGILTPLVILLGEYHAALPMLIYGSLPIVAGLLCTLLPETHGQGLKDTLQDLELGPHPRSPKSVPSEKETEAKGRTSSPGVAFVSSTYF

Structure (SMILES): O=C(O)/C=C\C(=O)O [maleate]
cis-inhibition of URAT1-mediated urate uptake by extracellular organic anion (URAT1 [1]; 10 mM extracellular anion): not cis‐inhibited
cis-inhibition of OAT4-mediated, maleate trans-stimulated urate uptake (OAT4): efficiently cis‐inhibited
trans-stimulatory effect of preloaded anion on OAT4-mediated urate uptake (OAT4): modest trans‐stimulatory effect

Structure (SMILES): CC(O)CC(=O)O (stereo not drawn) [BHB, β‐hydroxy butyrate]
trans-stimulatory effect of preloaded intracellular anion on URAT1-mediated urate uptake (URAT1 [1]): did not however detect any significant trans‐stimulatory effect
cis-inhibition of URAT1-mediated urate uptake by extracellular organic anion (URAT1 [1]; 10 mM extracellular anion): not cis‐inhibited
trans-stimulatory effect of preloaded anion on OAT10-mediated urate uptake (OAT10 [2]): modest trans‐stimulatory effect

Effect of extracellular anion on GLUT9a activity (GLUT9a): no effect
cis-inhibition of URAT1-mediated urate uptake by extracellular organic anion (URAT1 [1]): cis‐inhibition
cis-inhibition of URAT1-mediated [14C]-nicotinate uptake by extracellular anion (URAT1 [3]): cis‐inhibited
Structure (SMILES): O=C(O)c1ccccc1O [salicylate]

Structure (SMILES): O=CO [formate]
cis-inhibition of URAT1-mediated urate uptake by extracellular organic anion (URAT1 [1]): not cis‐inhibited

cis-inhibition of URAT1-mediated urate uptake by extracellular organic anion (URAT1 [1]; 10 mM extracellular anion): not cis‐inhibited
Structure (SMILES): CC(O)C(=O)O (stereo not shown) [lactate]
trans-stimulatory effect of preloaded intracellular anion on URAT1-mediated urate uptake (URAT1 [1]): did not however detect any significant trans‐stimulatory effect

cis-inhibition of URAT1-mediated urate uptake by extracellular organic anion (URAT1 [1]): not cis‐inhibited
cis-inhibition of OAT4-mediated, maleate trans-stimulated urate uptake (OAT4): much less cis‐inhibition
trans-stimulatory effect of preloaded anion on OAT4-mediated urate uptake (OAT4): no significant effects
Structure (SMILES): O=C(O)CCC(=O)O [succinate]

Structure (SMILES): CC(=O)C(=O)O [pyruvate]
cis-inhibition of URAT1-mediated urate uptake by extracellular organic anion (URAT1 [1]; 10 mM extracellular anion): not cis‐inhibited

Structure (SMILES): O=c1[nH]c(=O)c2[nH]c(=O)[nH]c2[nH]1 [urate]
cis-inhibition of URAT1-mediated [14C]-nicotinate uptake by extracellular anion (URAT1 [3]): cis‐inhibited

Structure (SMILES): O=C(O)c1cnccn1 [PZA, pyrazine carboxylate]
Effect of extracellular anion on GLUT9a activity (GLUT9a; Fig. 2C): no effect
cis-inhibition of OAT3-mediated urate uptake by extracellular anion (OAT3; 10 mmol/L extracellular anion): almost completely cis‐inhibited
Effect of preloaded intracellular anion on OAT3 [14C]-urate uptake (trans-stimulation) (OAT3; preloaded anion): did not have any effect
cis-inhibition of URAT1-mediated urate uptake by extracellular organic anion (URAT1 [1]; 10 mM extracellular anion): cis‐inhibition
URAT1 urate uptake after preloading with anion (trans-stimulation), fold over preloaded control oocytes (URAT1 [1]; oocytes preloaded with nonlabeled anion): 70–75 fold
OAT10 [14C]-nicotinate uptake after preloading, fold over PZA-preloaded control oocytes (OAT10 [4]): 118–120 fold
trans-stimulatory effect of preloaded anion on OAT10-mediated urate uptake (OAT10 [2]): modest trans‐stimulatory effect
cis-inhibition of URAT1-mediated [14C]-nicotinate uptake by extracellular anion (URAT1 [3]): cis‐inhibited
URAT1 [14C]-nicotinate uptake after preloading (trans-stimulation), fold over water-injected control oocytes (URAT1 [3]; preloaded anion): 19–20 fold
trans-stimulatory effect of preloaded anion on OAT4-mediated urate uptake (OAT4): no significant effects

Structure (SMILES): Nc1ccc(C(=O)NCC(=O)O)cc1 [PAH, para‐aminohippurate]
trans-stimulatory effect of preloaded intracellular anion on URAT1-mediated urate uptake (URAT1 [1]): did not however detect any significant trans‐stimulatory effect
cis-inhibition of URAT1-mediated urate uptake by extracellular organic anion (URAT1 [1]; 10 mM extracellular anion): not cis‐inhibited

Structure (SMILES): O=C(O)CC(O)(CC(=O)O)C(=O)O [citrate]
cis-inhibition of URAT1-mediated urate uptake by extracellular organic anion (URAT1 [1]; 10 mM extracellular anion): not cis‐inhibited

Structure (SMILES): O=C(O)C(=O)O [oxalate]
cis-inhibition of URAT1-mediated urate uptake by extracellular organic anion (URAT1 [1]; 10 mM extracellular anion): not cis‐inhibited

From paper PMC5368959, “Uricosuric targets of tranilast” (Pharmacology Research & Perspectives, 2017)
